The Biogen ADME set (Fang et al. 2023)
Converted amounts (≈) assume the structure as drawn.

Settings: for aqueous solubility: pH 6.8

Row | Structure (SMILES) | MDR1-MDCK efflux ratio | intrinsic clearance, human liver microsomes | intrinsic clearance, rat liver microsomes | aqueous solubility | fraction unbound, human plasma | fraction unbound, rat plasma
1 | Cc1cc(C)n2ncc(C(=O)NC3CCCCC3)c2n1 | 0.702 | 55.8 mL/min/kg | 166 mL/min/kg | 4.94 µg/mL (≈ 18.1 µM) |  | 
2 | Cc1cccc(Oc2cc(CN)ccn2)c1C | 0.443 | ≤ 4.74 mL/min/kg | 527 mL/min/kg | 30.1 µg/mL (≈ 132 µM) |  | 
3 | CC1(C)C(=O)N(Cc2ccc(CO)cc2)C(=O)c2ccccc21 |  |  |  | 27.5 µg/mL (≈ 88.8 µM) |  | 
4 | Clc1ccc(COc2cccc(N3CCNCC3)c2)cc1 |  | 5.23 mL/min/kg | 320 mL/min/kg | 23.2 µg/mL (≈ 76.6 µM) |  | 
5 | COc1ccc(C2(NCc3cnn(-c4ccccc4)c3)CCCC2)cc1 |  | 81.5 mL/min/kg | 976 mL/min/kg | 57.4 µg/mL (≈ 165 µM) |  | 
6 | Cn1nc(C2CCNCC2)c2cccnc21 | 6.86 | ≤ 4.74 mL/min/kg | 36.3 mL/min/kg | 53.4 µg/mL (≈ 247 µM) |  | 
7 | CC(C)CC(=O)N1CCC(Cc2cccc(-c3cncnc3)c2)(C(=O)NC(C)C)CC1 | 71.8 | 199 mL/min/kg | 694 mL/min/kg | 137 µg/mL (≈ 324 µM) |  | 
8 | Fc1cccc(Cn2nnc(-c3ccccc3)n2)c1F | 0.358 |  |  | 0.1 µg/mL (≈ 0.367 µM) |  | 
9 | CC(=O)N1CCCN(C(=O)Nc2ccc(N(C)C3CCCCC3)c(F)c2)CC1 | 28.2 | 103 mL/min/kg | 924 mL/min/kg | 67.7 µg/mL (≈ 173 µM) |  | 
10 | CCc1[nH]nc(NC2CCC(C(=O)OC)CC2)c1C (stereo unspecified) | 0.826 | 523 mL/min/kg | 296 mL/min/kg |  |  | 
11 | Cc1ccc(-c2cnc3ccccc3n2)cc1N |  | 256 mL/min/kg | 203 mL/min/kg |  |  | 
12 | COC1(c2nc(Cc3ccccc3)no2)CCN(Cc2ncccc2Cl)CC1 | 0.76 | 123 mL/min/kg | 1780 mL/min/kg |  |  | 
13 | CC1(COc2ccc3c(c2)ncn3-c2ccc3cccc(N4CCC(N)CC4)c3n2)COC1 |  | 57.1 mL/min/kg | 196 mL/min/kg | 32.8 µg/mL (≈ 74 µM) |  | 
14 | Cc1cc(Nc2cc(N3CCN(C)CC3)nc(/C=C/c3ccccc3)n2)n[nH]1 |  |  |  | 0.2 µg/mL (≈ 0.533 µM) |  | 
15 | CSc1ccc(C(=O)Nc2cccc(C(=O)NCC(C)C)c2)cc1 | 1.59 | 119 mL/min/kg | 2660 mL/min/kg |  |  | 
16 | Cc1n[nH]c(C2CCN(C(=O)NC3CCN(c4ccc(F)cc4)CC3)CC2)n1 | 22.9 | ≤ 4.74 mL/min/kg | 38.3 mL/min/kg |  |  | 
17 | CNC(=O)C1(Cc2ccc(-c3cccnc3)cc2)CCN(Cc2ccc(F)cc2)C1 (stereo unspecified) | 1.53 | 228 mL/min/kg | 756 mL/min/kg |  | 0.105 | 0.083
18 | Cc1ccc(Cn2nc(C)c(C(N)=O)c2Cl)cc1 | 0.663 | 7.25 mL/min/kg | 358 mL/min/kg | 24.4 µg/mL (≈ 92.6 µM) |  | 
19 | C[C@H](NC(=O)CCC(F)(F)F)C(=O)N[C@@H]1C(=O)N(CCO)c2ncccc2-c2ccccc21 | 24 | ≤ 4.74 mL/min/kg | 10.8 mL/min/kg |  |  | 
20 | CC1(C)[C@H]2CC=C(CN3CCC4(CCC(=O)N4)CC3)[C@@H]1C2 | 0.825 | ≤ 4.74 mL/min/kg | 196 mL/min/kg |  |  | 
21 | CCCN(C(=O)c1c(CC)noc1C)C1Cc2ccccc2C1 | 0.947 | 182 mL/min/kg | 2380 mL/min/kg | 37.3 µg/mL (≈ 119 µM) |  | 
22 | O=C1NC2(CCC2)C(=O)N1Cc1ccon1 |  | ≤ 4.74 mL/min/kg | ≤ 10.7 mL/min/kg |  |  | 

Row | Structure (SMILES) | MDR1-MDCK efflux ratio | intrinsic clearance, human liver microsomes | intrinsic clearance, rat liver microsomes | aqueous solubility | fraction unbound, human plasma | fraction unbound, rat plasma
23 | Cc1cc(-n2nc(C)cc2N)nc(C)n1 |  | 58.9 mL/min/kg | 125 mL/min/kg |  |  | 
24 | C[C@H]1Oc2cc(cnc2N)-c2c(nn(C)c2C#N)CN(C)C(=O)c2ccc(F)cc21 | 14.5 | ≤ 4.74 mL/min/kg | 34.3 mL/min/kg |  |  | 
25 | CC(C)Oc1ccc(C(=O)Nc2cccc(-c3nc4cnccc4o3)c2)cc1 |  |  |  | 0.54 µg/mL (≈ 1.45 µM) |  | 
26 | O=C(Nc1ccc(C(F)(F)F)cc1)c1ccccn1 |  | 31.9 mL/min/kg | 165 mL/min/kg |  |  | 
27 | Cc1cccc(OCCCNc2cc(Cn3c(C)nc4ccccc43)nc(N)n2)c1 | 22.7 | 535 mL/min/kg | 2050 mL/min/kg | 35.5 µg/mL (≈ 88.1 µM) |  | 
28 | CCn1c(-c2nonc2N)nc2cnc(Oc3cccc(NC(=O)c4ccc(OCCN5CCOCC5)cc4)c3)cc21 | 7.8 | 101 mL/min/kg | 232 mL/min/kg |  | 0.00355 | 0.00473
29 | OCC1CCCCN1Cc1ccc(-c2ccccc2)cc1 (stereo unspecified) | 0.708 | 20.6 mL/min/kg | 2220 mL/min/kg | 41.7 µg/mL (≈ 148 µM) | 0.233 | 0.248
30 | Cc1cccc(N(C)C(=O)COC2CCCC2)n1 | 0.667 | 44.8 mL/min/kg | 200 mL/min/kg | 59.6 µg/mL (≈ 240 µM) |  | 
31 | Cc1ccnc(N2CCC(OCC3CCCC3)CC2)n1 | 0.515 | 108 mL/min/kg | 5910 mL/min/kg |  |  | 
32 | N#Cc1ccc(OCc2nnc(S)n2-c2ccccc2)cc1 |  |  |  | 45.7 µg/mL (≈ 148 µM) |  | 
33 | O=C(CNc1ccc(C(=O)N2CCCC2)cc1)N1CCCCC1 | 5.78 | ≤ 4.74 mL/min/kg | 92.7 mL/min/kg | 54.2 µg/mL (≈ 172 µM) |  | 
34 | c1cnc(-n2cccn2)c(CNC2CCCC2)c1 | 0.951 | ≤ 4.74 mL/min/kg | 40.3 mL/min/kg | 30.4 µg/mL (≈ 125 µM) |  | 
35 | Nc1ccc(Cl)c(NC2=NN(c3c(Cl)cc(Cl)cc3Cl)C(=O)C2)c1 |  | 92.5 mL/min/kg | 702 mL/min/kg | 14.1 µg/mL (≈ 34.8 µM) |  | 
36 | O=S(=O)(Nc1ccc(C(O)(C(F)(F)F)C(F)(F)F)cc1)c1ccccc1 |  | 7.61 mL/min/kg | 17.1 mL/min/kg |  |  | 
37 | CCC(C)(C)c1ccc(Oc2ccc(NC(=O)Nc3ccccc3OC)cc2)cc1 |  |  |  | 0.43 µg/mL (≈ 1.06 µM) |  | 
38 | Cc1cc(NC(=O)[C@H](C)N(C)C)c2ccccc2n1 | 0.813 | 9.63 mL/min/kg | 109 mL/min/kg |  |  | 
39 | Oc1ccc2nc(/C=C/c3csnn3)ccc2c1Cl | 0.069 | 99.4 mL/min/kg | 240 mL/min/kg |  |  | 
40 | COC(C)(C)C(=O)Nc1ccnc(C(C)(C)C)n1 | 0.599 | 10.9 mL/min/kg | 106 mL/min/kg |  |  | 
41 | COc1ccc(-c2onc(C)c2-c2cnn(-c3ccccc3)c2)c(O)c1 |  |  |  | 0.25 µg/mL (≈ 0.72 µM) |  | 
42 | Cc1ccc(CN(C)C(=O)c2cn(Cc3ccccc3F)nn2)cc1 | 0.764 | 64.8 mL/min/kg | 1090 mL/min/kg | 11.4 µg/mL (≈ 33.7 µM) |  | 
43 | COc1ccc(CNC(=O)c2nnn(-c3ccc(OC)cc3)c2N)cc1 | 0.513 | 7.49 mL/min/kg | 80.4 mL/min/kg | 11.5 µg/mL (≈ 32.7 µM) |  | 
